In patent publication US11091510B2, “Crystal characteristics, preparation processes and anticancer applications of 17beta-neriifolin crystal forms” (EnKang Pharmaceuticals (Guangzhou), Ltd., priority 2017, dated 2021):

Test system: Human gastric cancer cells MGC-803
Assay: In vivo efficacy test of 17bNF Crystal Form 0 and Form II, MGC-803 xenograft in nude mice
Conditions: oral, once a day, six times every week until the 15th day; start at average tumor volume 1450 mm^3; FIG. 42A-C
Protocol: Human gastric cancer cells MGC-803 were subcutaneously planted into the armpit of nude mice. The test drugs 17bNF-0 and 17bNF-II were separately administrated orally when the average tumor volume reached 1450 mm^3. Drugs were given once a day, six times every week until the 15th day. CMC (drug-carrier; 0.5%) was used as the blank control. Tumor volumes were measured once about every three days (FIG. 42A), and the nude mice were photographed on the 22th day (FIG. 42B), and the nude mice were sacrificed on the 22th day. The tumors were dissected out from the nude mice and photographed (FIG. 42C).

## COC1C(O)[C@H](O[C@H]2CC[C@@]3(C)[C@H](CC[C@@H]4[C@@H]3CC[C@]3(C)[C@@H](C5=CC(=O)OC5)CC[C@]43O)C2)OC(C)[C@@H]1O (stereo partly drawn) [17bNF-0, (3β, 5β)-3-[(6-deoxy-3-O-methyl-α-L-glucopyranosyl)oxy]-14-hydroxycard-20(22)-enolide]
  anticancer activities in nude mice (tumor volume): very high anticancer activities
